Reference: US20260293937A1, “SHRIMP FEED AND METHODS OF USE THEREOF” (Organicin Scientific, Inc., priority 2023, published 2026)
No end group written: not given here.

Legend:
brine shrimp = test: Pre- and post-dialysis toxicity assay and Nisin/EDTA toxicity assay (Example 9); type: in vivo, Artemia salina; conditions: after 48-hour dialysis; example in present tense
Source text: Utilizing materials, methods and experimental designs as described in Examples 1-6, Nisin Z is subjected to a 48-hour dialysis treatment to reduce impurities. The toxicity assay involves exposing brine shrimp to treated and untreated samples of Nisin Z, both alone and in combination with EDTA at a concentration of […].

[1] = test system: brine shrimp (Artemia salina); test: Brine shrimp toxicity of EDTA (Example 5); type: in vivo; conditions: for mortality at 20000 µM: Artemia salina, 20 mM; for mortality: concentrations less than or equal to 400 µM
Source text: This Example describes the toxicity and efficacy of EDTA in reducing pathogenesis and promoting survival of shrimp. Brine shrimp (Artemia salina) were utilized as a model organism to simulate potential impacts on Pacific whiteleg shrimp (Penaeus vannamei).
Artemia salina (a species of brine shrimp) were used. Additional materials included: ethylenediaminetetraacetic acid (EDTA; 99% pure) powder (USB Corporation Instant Ocean (Instant Ocean Spectrum Brands. Blacksburg, VA); and Artemia salina eggs were used.
Artemia salina eggs were hatched in artificial seawater (Instant Ocean) under controlled conditions. Newly hatched brine shrimp were then exposed to varying concentrations of EDTA in experimental tanks. A separate set of tanks was used for each concentration of EDTA (20 mM, 400 uM, 200 uM, and 100 uM).
Control tanks treated with saline water were prepared to observe the natural behavior and survival rate of Artemia salina without EDTA exposure.
Brine shrimp were divided into different tanks for exposure to varying concentrations (20 mM, 400 uM, 200 uM, and 100 uM) of EDTA.
Mortality and behavior of brine shrimp were recorded at 24 and 48 hours post-exposure.

E. coli (ECX) = test: Zone of inhibition, Nisin with and without EDTA (Example 6); type: cell-based, Escherichia coli; conditions: 4.05 mg/mL Nisin in CAB, with or without 20.8 mM EDTA
Description: (§1) ImmuCell Nisin A (96% pure) suspended in citric acid buffer (pH 3.4) at 4.05 mg/mL (ImmuCell, Portland, ME); Nisin A (Nissen®-A; 10% pure powder, Siveele, Breda, Netherlands): Citric Acid Buffer (CAB) pH=3.4; 60 mm Petri Dishes; Laboratory control strain of Staphylococcus aureus (“SAI”), experimental strains of Escherichia coli (“ECY” and “ECX”) and Vibrio parahaemolyticus (“VPY”, and “VPX”); and ethylenediaminetetraacetic acid (EDTA: 99% pure) powder (USB Corporation) were used.
(§2) On the day before the experiment, stocks of Vibrio parahaemolyticus, Staphylococcus aureus, and Escherichia coli were prepared. An inoculation loop was sterilized, cooled, and used to extract cells, which were then cultured in nutrient broth at 37° C. for 16 to 20 hours. The bacterial density was adjusted to approximately 10^7 to 10^8 CFU/mL. Subsequently, 100 μL of each culture, normalized to about 10^6 to 10^7 CFU/mL, was evenly spread on agar plates using sterile glass beads, creating a uniform bacterial lawn. Four identical lawns were prepared for each bacterial type to ensure replicative testing of treatments.
(§3) Two forms of Nisin, 96% pure Nisin (Immucell) and 10% pure Niseen (Sivele), were prepared in citric acid buffer (CAB) at a concentration of 4.05 mg/mL. To assess synergistic effects, EDTA was added to each Nisin solution to achieve a final concentration of 20.8 mM.
(§4) […] of each treatment formulation were spotted onto the prepared bacterial lawns. These plates were then incubated at 37° C. for 16 to 20 hours to allow for bacterial growth and ZOI formation.
(§5) The ZOI were observed and measured in millimeters to measure the degree of bacterial growth suppression.

E. coli (ECY) = test: as above; type: cell-based, Escherichia coli; conditions: 4.05 mg/mL Nisin in CAB, with or without 20.8 mM EDTA
Description: as §1, §2, §3, §4, §5

Escherichia coli (EC-18) = test: Zone of inhibition on agar plates (Example 4); type: cell-based; conditions: for concentration with no killing / concentration with reduced growth / killing down to a concentration: pre-purification
Description: (§6) ImmuCell Nisin A (96% pure) suspended in citric acid buffer (pH-3.4) at 4.86 mg/mL (ImmuCell, Portland, ME); Nisin A (Nissen®-A; 10% pure powder, Siveele, Breda, Netherlands): Nisin Z (26.7% pure) powder (Handry, Brussels, Belgium): Citric Acid Buffer (CAB) pH=3.4; Distilled H2O (dH2O); Instant Ocean (Instant Ocean Spectrum Brands, Blacksburg. VA): Artemia salina eggs: 60 mm Petri Dishes; Laboratory control strains of Staphylococcus aureus and Escherichia coli (“SA1” and “EC-18,” respectively): 15 mL Falcon Tubes; and Slide-A-Lyzer Dialysis Flask, 2K MWCO, 250 mL (Thermo Scientific, Rockford, IL) were used.
(§7) Nisin variants (Nisin A, Nisin Z, and ImmuCell Nisin A) were dissolved in either citric acid buffer (CAB, pH 3.4) for Nisin A or dH2O for Nisin Z to make a stock solution of 4.86 mg/mL. Serial dilutions were performed to achieve the different concentrations (4.86 mg/mL to 0.005 mg/mL) for the experiments.
(§8) Parallel to the toxicity tests, antibacterial efficacy was evaluated by applying Nisin solutions (before and after basic purification via Slide-A-Lyzer Dialysis) onto agar plates pre-inoculated with laboratory control strains Staphylococcus aureus (“SA1”) and Escherichia coli (“EC-18”). Zones of inhibition were measured 24 hours post-incubation at 37° C.
(§9) Mortality and behavior of the brine shrimp were recorded at 24 and 48 hours post-exposure. For the antimicrobial tests, the diameter of inhibition zones on agar plates containing the laboratory control strains were measured and recorded.

[2] = test system: Staphylococcus aureus (SA1); test: Zone of inhibition on agar plates (Example 4); type: cell-based; conditions: for concentration with no killing / concentration with reduced growth / killing down to a concentration: pre-purification
Description: as §6, §7, §8, §9

Suspension in dH2O = type: physicochemical
Description: as §7

[3] = test system: Vibrio parahaemolyticus (VPX); test: Zone of inhibition, Nisin with and without EDTA (Example 6); type: cell-based; conditions: 4.05 mg/mL Nisin in CAB, with or without 20.8 mM EDTA
Description: as §1, §2, §3, §4, §5

[4] = test system: Vibrio parahaemolyticus (VPY); test: as above; type: cell-based; conditions: 4.05 mg/mL Nisin in CAB, with or without 20.8 mM EDTA
Description: as §1, §2, §3, §4, §5

[5] = test system: Staphylococcus aureus (SA1); test: as above; type: cell-based; conditions: 4.05 mg/mL Nisin in CAB, with or without 20.8 mM EDTA
Description: as §1, §2, §3, §4, §5

[6] = test system: brine shrimp (Artemia salina); test: Brine shrimp toxicity of Nisin formulations (Example 4); type: in vivo; conditions: for efficacy in reducing mortality in shrimp: Nisin Z (26.7% pure) compared with Nisin A (10% pure)
Description: This Example describes the efficacy of various Nisins: Nisin Z, Nisin A, and ImmuCell Nisin A. This experiment assessed the safety and antimicrobial efficacy of various Nisin formulations in treating Vibrio parahaemolyticus infections, a common pathogen in aquaculture environments. Brine shrimp (Artemia salina) were utilized as a model organism to simulate potential impacts on Pacific whiteleg shrimp (Penaeus vannamei).
as §7
Artemia salina eggs were hatched in artificial seawater (Instant Ocean) under controlled conditions. Newly hatched brine shrimp were then exposed to varying concentrations of each Nisin solution in experimental tanks. A separate set of tanks was used for each type of Nisin formulation.
Control tanks (treated with either CAB or saline water) were prepared to observe the natural behavior and survival rate of Artemia salina without Nisin exposure.
Brine shrimp were divided into different tanks for exposure to varying concentrations (2.43 mg/mL, 0.608 mg/mL, 0.152 mg/mL, and 0.038 mg/mL) of Nisin A, Nisin Z, and ImmuCell Nisin A.
as §9

[7] = highly acidic conditions, high temperatures, proteases; cited from earlier work
Vibrio parahaemolyticus = test: Brine shrimp efficacy challenge trial with and without Nisin (Example 7); type: in vivo, Artemia salina; conditions: vs control group exposed to Vibrio parahaemolyticus without Nisin Z; example in present tense
Description: Brine shrimp (Artemia salina) are used and are prepared according to methods detailed in Examples 1-6. Additional materials, methods and experimental design may be similar to that described in Examples 1-6. A virulent strain of Vibrio parahaemolyticus is cultured to a concentration of about […], which is used for the challenge. Shrimp groups are divided: one group receives no treatment (as control) and the other group set receives brine infused with Nisin Z (concentration as determined optimal in prior experiments).

[8] = Retention by 2 kDa dialysis membrane; type: physicochemical; conditions: water sampled at 4 and 24 hours
Description: as §8
Next, the zones of inhibition for Nisin Z pre- and 48 hours post-2 kDa dialysis membrane purification were spotted onto a lawn of a control strain (SA1). […] Water samples were taken to test if any drug was lost at the 4 hour mark and again at the 24 hour mark. […] To remove additional contaminants, additional filtration is performed to purify Nisin Z.

[9] = unpurified, in dH2O, 0.608 mg/mL
[10] = all dilutions 4.86 mg/mL-0.005 mg/mL

Molecule	Diameter (zone of inhibition) (E. coli (ECX))	Diameter (zone of inhibition) (E. coli (ECY))	concentration with no killing (Escherichia coli (EC-18))	concentration with reduced growth (Escherichia coli (EC-18))	killing down to a concentration (Escherichia coli (EC-18))	concentration with no killing [2]	concentration with reduced growth [2]	killing down to a concentration [2]	suspension with dH2O as solvent (Suspension in dH2O)	Diameter (zone of inhibition) [3]	Diameter (zone of inhibition) [4]	Diameter (zone of inhibition) [5]	efficacy in reducing mortality in shrimp [6]	mortality [6, 9]	also measured
post-dialyzed Nisin Z: Nisin Z subjected to a 48-hour dialysis treatment to reduce impurities (ITSISLCTPGCKTGALMGCNMKTATCNCSIHVSK; cysteine pairing not given here; also: lantibiotic nisin-Z, modifications not given here; UniProt P29559 24-57, looked up)															toxicity (brine shrimp): reduced toxicity
O=C(O)CN(CCN(CC(=O)O)CC(=O)O)CC(=O)O [EDTA, ethylenediaminetetraacetic acid]															mortality at 20000 µM ([1]; 24 hours post-exposure): 100%; mortality at 20000 µM ([1]; 48 hours post-exposure): 100%; mortality ([1]; 24 hours post-exposure): zero mortality; mortality ([1]; 48 hours post-exposure): zero mortality
Nisin A: Nisin A (Nissen®-A; 10% pure powder, Siveele, Breda, Netherlands) (ITSISLCTPGCKTGALMGCNMKTATCHCSIHVSK; cysteine pairing not given here; also: lantibiotic, modifications not placed; UniProt P13068 24-57, looked up)	8 mm	4 mm	0.005 mg/mL	0.009 mg/mL	0.019 mg/mL	0.005 mg/mL	0.009 mg/mL	0.019 mg/mL	did not go fully into suspension	4 mm	0 mm	13 mm	comparable efficacy	drastic increase in mortality	mortality ([6]; unpurified, in dH2O, 0.152 mg/mL): showed mortality
ImmuCell Nisin A: ImmuCell Nisin A (96% pure) suspended in citric acid buffer (ImmuCell, Portland, ME) (ITSISLCTPGCKTGALMGCNMKTATCHCSIHVSK; cysteine pairing not given here; also: lantibiotic, modifications not placed; UniProt P13068 24-57, looked up)	10 mm	6 mm								4 mm	4 mm	13 mm			zones of inhibition (Escherichia coli (EC-18); [10]): clear zones of inhibition; zones of inhibition [2, 10]: clear zones of inhibition
aureocin A53															stability [7]: stable under highly acidic conditions, high temperatures, and is not affected by proteases
Nisin Z: Nisin Z (26.7% pure) powder (Handry, Brussels, Belgium) (ITSISLCTPGCKTGALMGCNMKTATCNCSIHVSK; not fully specified (residues 2, 5, 33, bridges); cysteine pairing not given here; UniProt P29559 24-57, looked up)			0.005 mg/mL	0.009 mg/mL	0.019 mg/mL	0.005 mg/mL	0.009 mg/mL	0.019 mg/mL	went into suspension fully				comparable efficacy	drastic increase in mortality	zones of inhibition pre- and 48 hours post-dialysis ([2]; 2 kDa dialysis membrane purification): same sized zones; mortality rates (Vibrio parahaemolyticus): significantly lower mortality rates; loss of Nisin into the dH2O [8]: no loss of Nisin; toxicity ([6]; unpurified, in dH2O, 0.152 mg/mL to 0.038 mg/mL, 48 hours): no toxicity
